Laboratory results taken from patent publication US12590066B2, “Fused-heterocyclyl-carbonohydrazonoyl dicyanide compounds and use thereof” (KOREA INSTITUTE OF SCIENCE AND TECHNOLOGY, priority 2020, dated 2026).

Columns and labels:
[1] = Liver microsome stability; assay type: in vitro ADME; conditions: 1 μM compound, 37° C., 30 minutes, NADPH; for Dog (%) amount of substrate remaining after the reaction: dog liver microsomes 0.25 mg/mL; for Human (%) amount of substrate remaining after the reaction: human liver microsomes 0.25 mg/mL; for Mouse (%) amount of substrate remaining after the reaction: mouse liver microsomes 0.25 mg/mL; for Rat (%) amount of substrate remaining after the reaction: rat liver microsomes 0.25 mg/mL
Experimental: The stability of liver microsomes due to the compounds prepared according to Examples 1 to 57 was confirmed. Specifically, four types of liver microsomes (human, dog, rat, and mouse, each 0.25 mg/mL), a 0.1 M phosphate buffer solution (pH 7.4), and each of the compounds at a concentration of 1 μM were mixed and pre-cultured at 37° C. for 5 minutes and further cultured at 37° C. for 30 minutes together with an NADPH generation system solution added thereto. Thereafter, the reaction was terminated by adding an acetonitrile solution containing an internal standard material (chloropropamide) and centrifuged for 5 minutes (14,000 rpm, 4° C.), and then a supernatant was injected into an LC-MS/MS system for analysis of substrate drugs to thereby evaluate metabolic stability due to 8 types of compounds.
The amount of the substrate remaining after the reaction was analyzed using the Shimadzu Nexera XR system and TSQ Vantage (Thermo). In an HPLC column, Kinetex XB-C18 (2.1 mm×100 mm, particle size of 2.6 μm; Phenomenex, USA) was used, and mobile phases were (A) distilled water containing 0.1% formic acid and (B) acetonitrile containing 0.1% formic acid. Analyst software (version 1.6.3) and Xcalibur (version 1.6.1) were used for data analysis.

CYP2C9 = biological target: T1, CYP2C9 (Homo sapiens, UniProt P11712); assay: Inhibitory effect on CYP coenzyme activity, human liver microsomes; assay type: in vitro ADME; conditions: 10 μM compound, human liver microsomes 0.25 mg/mL, substrate diclofenac, 15 minutes
T1 construct: human liver microsomes (0.25 mg/mL); from tissue; host or cells: human liver microsomes
T1 sequence (P11712 whole entry): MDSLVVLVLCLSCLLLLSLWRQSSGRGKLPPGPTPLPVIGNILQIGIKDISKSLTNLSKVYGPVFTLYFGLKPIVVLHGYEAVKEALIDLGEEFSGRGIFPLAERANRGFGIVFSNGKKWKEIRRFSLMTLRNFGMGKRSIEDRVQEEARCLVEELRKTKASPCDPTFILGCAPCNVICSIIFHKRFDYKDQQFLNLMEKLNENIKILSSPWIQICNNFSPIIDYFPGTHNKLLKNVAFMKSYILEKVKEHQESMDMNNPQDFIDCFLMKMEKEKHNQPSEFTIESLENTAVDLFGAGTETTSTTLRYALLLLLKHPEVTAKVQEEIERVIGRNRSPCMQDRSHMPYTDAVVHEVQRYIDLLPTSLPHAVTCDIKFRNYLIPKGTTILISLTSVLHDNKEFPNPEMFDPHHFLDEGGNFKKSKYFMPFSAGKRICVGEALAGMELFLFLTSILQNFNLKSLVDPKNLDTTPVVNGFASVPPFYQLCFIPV
Experimental: (§1) The inhibitory effects of the compounds prepared according to Examples 1 to 57 on CYP coenzyme activity were identified. Specifically, human liver microsomes (0.25 mg/mL), a 0.1 M phosphate buffer solution (pH 7.4), a substrate drug cocktail of five types of drug metabolism enzymes (50 μM phenacetin, 10 μM diclofenac, 100 μM S-mephenytoin, 5 μM dextromethorphan, and 2.5 μM midazolam), and the compound at a concentration of 0 μM or 10 μM were mixed and pre-cultured at 37° C. for 5 minutes, and then further cultured at 37° C. for 15 minutes together with an NADPH generation system solution added thereto. Thereafter, the reaction was terminated by adding an acetonitrile solution containing an internal standard material (terfenadine) and centrifuged for 5 minutes (14,000 rpm, 4° C.), and then a supernatant was injected into an LC-MS/MS system for simultaneous analysis of metabolites of the substrate drugs to thereby evaluate the inhibitory effects on drug metabolism.
(§2) Metabolites of each CYP coenzyme indicator drug generated through the reaction were analyzed using the Shimadzu Nexera XR system and TSQ Vantage (Thermo). In an HPLC column, Kinetex C18 (2.1 mm×100 mm, 2.6 μm, particle size; Phenomenex, USA) was used, and mobile phases were (A) distilled water containing 0.1% formic acid and (B) acetonitrile containing 0.1% formic acid, and a gradient program shown in Table 3 was applied thereto.
(§3) The generated metabolites were quantified using a multiple reaction monitoring (MRM) quantification mode, and Xcalibur (version 1.6.1) was used for data analysis. In order to express inhibitory effects of the novel compound prepared according to the examples of the present invention on CYP coenzyme activity, CYP coenzyme activities (%) with respect to the control group not treated with the compound are shown in Table 4 below.

CYP3A4 = biological target: T2, CYP3A4 (Homo sapiens, UniProt P08684); assay: as above; assay type: in vitro ADME; conditions: 10 μM compound, human liver microsomes 0.25 mg/mL, substrate midazolam, 15 minutes
T2 construct: human liver microsomes (0.25 mg/mL); from tissue; host or cells: human liver microsomes
T2 sequence (P08684 whole entry): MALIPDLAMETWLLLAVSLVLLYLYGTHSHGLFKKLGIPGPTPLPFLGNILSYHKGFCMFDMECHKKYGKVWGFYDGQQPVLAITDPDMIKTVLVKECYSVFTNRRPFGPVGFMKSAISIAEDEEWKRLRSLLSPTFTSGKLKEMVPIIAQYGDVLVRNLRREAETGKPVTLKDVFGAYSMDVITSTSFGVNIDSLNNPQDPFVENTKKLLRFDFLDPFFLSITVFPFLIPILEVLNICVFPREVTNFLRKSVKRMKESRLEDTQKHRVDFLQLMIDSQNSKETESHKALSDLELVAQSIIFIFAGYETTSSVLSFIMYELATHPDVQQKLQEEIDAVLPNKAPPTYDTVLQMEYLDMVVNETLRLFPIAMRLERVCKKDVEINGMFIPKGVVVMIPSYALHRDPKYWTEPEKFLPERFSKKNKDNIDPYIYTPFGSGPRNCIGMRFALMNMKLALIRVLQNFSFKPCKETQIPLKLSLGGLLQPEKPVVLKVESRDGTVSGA
Experimental: as §1, §2, §3

CYP1A2 = biological target: T3, CYP1A2 (Homo sapiens, UniProt P05177); assay: as above; assay type: in vitro ADME; conditions: 10 μM compound, human liver microsomes 0.25 mg/mL, substrate phenacetin, 15 minutes
T3 construct: human liver microsomes (0.25 mg/mL); from tissue; host or cells: human liver microsomes
T3 sequence (P05177 1-516): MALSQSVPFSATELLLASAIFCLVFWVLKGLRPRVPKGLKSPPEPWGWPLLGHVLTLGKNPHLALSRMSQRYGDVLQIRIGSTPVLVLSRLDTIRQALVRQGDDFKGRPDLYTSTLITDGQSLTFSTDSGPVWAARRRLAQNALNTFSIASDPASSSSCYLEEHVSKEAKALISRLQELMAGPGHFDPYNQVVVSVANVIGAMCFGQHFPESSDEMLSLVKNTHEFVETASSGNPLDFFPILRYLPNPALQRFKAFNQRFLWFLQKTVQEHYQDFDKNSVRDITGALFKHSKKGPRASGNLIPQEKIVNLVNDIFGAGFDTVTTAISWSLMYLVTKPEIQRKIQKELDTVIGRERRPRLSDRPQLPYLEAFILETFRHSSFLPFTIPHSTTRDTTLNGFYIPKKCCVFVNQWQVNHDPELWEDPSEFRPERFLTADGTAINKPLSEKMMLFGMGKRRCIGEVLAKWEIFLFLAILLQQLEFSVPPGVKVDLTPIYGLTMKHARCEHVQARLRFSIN
Experimental: as §1, §2, §3

CYP2C19 = biological target: T4, CYP2C19 (Homo sapiens, UniProt P33261); assay: as above; assay type: in vitro ADME; conditions: 10 μM compound, human liver microsomes 0.25 mg/mL, substrate S-mephenytoin, 15 minutes
T4 construct: human liver microsomes (0.25 mg/mL); from tissue; host or cells: human liver microsomes
T4 sequence (P33261 whole entry): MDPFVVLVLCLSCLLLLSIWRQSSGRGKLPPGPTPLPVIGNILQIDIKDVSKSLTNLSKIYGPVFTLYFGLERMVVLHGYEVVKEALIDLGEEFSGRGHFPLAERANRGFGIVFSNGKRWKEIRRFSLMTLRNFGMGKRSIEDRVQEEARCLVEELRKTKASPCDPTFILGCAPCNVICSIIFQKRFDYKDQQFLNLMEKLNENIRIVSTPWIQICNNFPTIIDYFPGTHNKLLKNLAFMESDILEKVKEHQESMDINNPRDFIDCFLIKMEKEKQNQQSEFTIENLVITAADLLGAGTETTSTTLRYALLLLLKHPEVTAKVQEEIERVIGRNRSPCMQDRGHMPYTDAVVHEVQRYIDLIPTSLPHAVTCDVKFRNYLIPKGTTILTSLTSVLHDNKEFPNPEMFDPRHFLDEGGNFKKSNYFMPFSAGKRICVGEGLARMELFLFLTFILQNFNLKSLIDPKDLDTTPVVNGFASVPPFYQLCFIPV
Experimental: as §1, §2, §3

Tau-BiFC cells = assay: Cell viability (stained nuclei count) in Tau-BiFC cells; assay type: cell-based; conditions: 10 μM compound, 48 hours; Forskolin-only group = 100% cell viability
In short: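 Tau-BiFC cells co-treated 48 h with 30 μM forskolin and compounds (1, 3, 10 μM screen; 0.01–30 μM dose-response). BiFC fluorescence normalized to forskolin-only (100% aggregation) minus untreated gives aggregation inhibition and IC50; viability as Hoechst-stained nuclei count relative to forskolin-only.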

N#CC(C#N)=NNc1ccc2c(c1)n(C(F)F)c(=O)n2C(F)F [Compound 24, (1,3-bis(difluoromethyl)-2-oxo-2,3-dihydro-1H-benzo[d]imidazol-5-yl)carbonohydrazonoyl dicyanide]
Dog (%) amount of substrate remaining after the reaction [1]: 88.1% | Human (%) amount of substrate remaining after the reaction [1]: 88.2% | Mouse (%) amount of substrate remaining after the reaction [1]: 84.1% | Rat (%) amount of substrate remaining after the reaction [1]: 86.8% | CYP2C9 coenzyme activity (%) with respect to control group not treated (CYP2C9): 40.6% | CYP3A4 coenzyme activity (%) with respect to control group not treated (CYP3A4): 78.1% | CYP1A2 coenzyme activity (%) with respect to control group not treated (CYP1A2): 32.8% | CYP2C19 coenzyme activity (%) with respect to control group not treated (CYP2C19): 73.9% | Cell viability (% @10 μM) (Tau-BiFC cells): 125.1%

N#CC(C#N)=NNc1ccc2[nH]c(=O)sc2c1 [Compound 13, (2-oxo-2,3-dihydrobenzo[d]thiazol-6-yl)carbonohydrazonoyl dicyanide]
Dog (%) amount of substrate remaining after the reaction [1]: >100% | Human (%) amount of substrate remaining after the reaction [1]: >100% | Mouse (%) amount of substrate remaining after the reaction [1]: >100% | Rat (%) amount of substrate remaining after the reaction [1]: >100% | CYP2C9 coenzyme activity (%) with respect to control group not treated (CYP2C9): 23.3% | CYP3A4 coenzyme activity (%) with respect to control group not treated (CYP3A4): 92.7% | CYP1A2 coenzyme activity (%) with respect to control group not treated (CYP1A2): 79% | CYP2C19 coenzyme activity (%) with respect to control group not treated (CYP2C19): 55.2% | Cell viability (% @10 μM) (Tau-BiFC cells): 115.8%

CCn1c(=O)n(C(C)C)c2ncc(NN=C(C#N)C#N)cc21 [Compound 55, (1-ethyl-3-isopropyl-2-oxo-2,3-dihydro-1H-imidazo[4,5-b]pyridin-6-yl)carbonohydrazonoyl dicyanide]
Human (%) amount of substrate remaining after the reaction [1]: 85.5% | Mouse (%) amount of substrate remaining after the reaction [1]: 87.7% | Rat (%) amount of substrate remaining after the reaction [1]: 91.8% | CYP2C9 coenzyme activity (%) with respect to control group not treated (CYP2C9): 38.9% | CYP3A4 coenzyme activity (%) with respect to control group not treated (CYP3A4): 78% | CYP1A2 coenzyme activity (%) with respect to control group not treated (CYP1A2): 58.4% | CYP2C19 coenzyme activity (%) with respect to control group not treated (CYP2C19): 73.1% | Cell viability (% @10 μM) (Tau-BiFC cells): 124%

Cn1c(=O)n(C)c2ncc(NN=C(C#N)C#N)cc21 [Compound 12, (1,3-dimethyl-2-oxo-2,3-dihydro-1H-imidazo[4,5-b]pyridin-6-yl)carbonohydrazonoyl dicyanide]
Dog (%) amount of substrate remaining after the reaction [1]: >100% | Human (%) amount of substrate remaining after the reaction [1]: >100% | Mouse (%) amount of substrate remaining after the reaction [1]: >100% | Rat (%) amount of substrate remaining after the reaction [1]: 94.9% | CYP2C9 coenzyme activity (%) with respect to control group not treated (CYP2C9): 93.4% | CYP3A4 coenzyme activity (%) with respect to control group not treated (CYP3A4): >100% | CYP1A2 coenzyme activity (%) with respect to control group not treated (CYP1A2): 99.6% | CYP2C19 coenzyme activity (%) with respect to control group not treated (CYP2C19): 92.2% | Cell viability (% @10 μM) (Tau-BiFC cells): 145.2%

N#CC(C#N)=NNc1ccc2[nH]c(=O)oc2c1 [Compound 15, (2-oxo-2,3-dihydrobenzo[d]oxazol-6-yl)carbonohydrazonoyl dicyanide]
Dog (%) amount of substrate remaining after the reaction [1]: 97.1% | Human (%) amount of substrate remaining after the reaction [1]: 74.2% | Mouse (%) amount of substrate remaining after the reaction [1]: >100% | Rat (%) amount of substrate remaining after the reaction [1]: 92.5% | CYP2C9 coenzyme activity (%) with respect to control group not treated (CYP2C9): 59.4% | CYP3A4 coenzyme activity (%) with respect to control group not treated (CYP3A4): 98.3% | CYP1A2 coenzyme activity (%) with respect to control group not treated (CYP1A2): 87.3% | CYP2C19 coenzyme activity (%) with respect to control group not treated (CYP2C19): 90.3% | Cell viability (% @10 μM) (Tau-BiFC cells): 127.7%

Cn1c(=O)sc2cc(NN=C(C#N)C#N)ccc21 [Compound 14, (3-methyl-2-oxo-2,3-dihydrobenzo[d]thiazol-6-yl)carbonohydrazonoyl dicyanide]
Dog (%) amount of substrate remaining after the reaction [1]: 73.3% | Human (%) amount of substrate remaining after the reaction [1]: 98.3% | Mouse (%) amount of substrate remaining after the reaction [1]: 59.6% | Rat (%) amount of substrate remaining after the reaction [1]: 87.1% | CYP2C9 coenzyme activity (%) with respect to control group not treated (CYP2C9): 19.5% | CYP3A4 coenzyme activity (%) with respect to control group not treated (CYP3A4): 91.2% | CYP1A2 coenzyme activity (%) with respect to control group not treated (CYP1A2): 81.6% | CYP2C19 coenzyme activity (%) with respect to control group not treated (CYP2C19): 68.8% | Cell viability (% @10 μM) (Tau-BiFC cells): 129.1%

CC(C)n1ccc2c(NN=C(C#N)C#N)cccc2c1=O [Compound 6, (2-isopropyl-1-oxo-1,2-dihydroisoquinolin-5-yl)carbonohydrazonoyl dicyanide]
Dog (%) amount of substrate remaining after the reaction [1]: 95% | Human (%) amount of substrate remaining after the reaction [1]: 94.2% | Mouse (%) amount of substrate remaining after the reaction [1]: 87% | Rat (%) amount of substrate remaining after the reaction [1]: >100% | CYP2C9 coenzyme activity (%) with respect to control group not treated (CYP2C9): 8.7% | CYP3A4 coenzyme activity (%) with respect to control group not treated (CYP3A4): 81.4% | CYP1A2 coenzyme activity (%) with respect to control group not treated (CYP1A2): 68.3% | CYP2C19 coenzyme activity (%) with respect to control group not treated (CYP2C19): 37.8% | Cell viability (% @10 μM) (Tau-BiFC cells): 118.1%

CCn1c(=O)n(C)c2cc(NN=C(C#N)C#N)ccc21 [Compound 38, (1-ethyl-3-methyl-2-oxo-2,3-dihydro-1H-benzo[d]imidazol-5-yl)carbonohydrazonoyl dicyanide]
Human (%) amount of substrate remaining after the reaction [1]: 95% | Mouse (%) amount of substrate remaining after the reaction [1]: 81.6% | Rat (%) amount of substrate remaining after the reaction [1]: 91.8% | CYP2C9 coenzyme activity (%) with respect to control group not treated (CYP2C9): 92.6% | CYP3A4 coenzyme activity (%) with respect to control group not treated (CYP3A4): >100% | CYP1A2 coenzyme activity (%) with respect to control group not treated (CYP1A2): 98.9% | CYP2C19 coenzyme activity (%) with respect to control group not treated (CYP2C19): >100% | Cell viability (% @10 μM) (Tau-BiFC cells): 106%

CC(C)n1c(=O)n(C(F)F)c2cc(NN=C(C#N)C#N)ccc21 [Compound 43, (3-(difluoromethyl)-1-isopropyl-2-oxo-2,3-dihydro-1H-benzo[d]imidazol-5-yl)carbonohydrazonoyl dicyanide]
Human (%) amount of substrate remaining after the reaction [1]: 81.5% | Mouse (%) amount of substrate remaining after the reaction [1]: 58.6% | Rat (%) amount of substrate remaining after the reaction [1]: 86.2% | CYP2C9 coenzyme activity (%) with respect to control group not treated (CYP2C9): 14.1% | CYP3A4 coenzyme activity (%) with respect to control group not treated (CYP3A4): 72.6% | CYP1A2 coenzyme activity (%) with respect to control group not treated (CYP1A2): 61.7% | CYP2C19 coenzyme activity (%) with respect to control group not treated (CYP2C19): 60.2% | Cell viability (% @10 μM) (Tau-BiFC cells): 96%
